Like-named read-outs stand apart in the source and are kept apart here. Peptide text beside a SMILES is read from it.
How the values were obtained:
[1] = system: other serine proteases (trypsin, fIXa, fXIa, fXa, chymotrypsin, tPA, fVIIa, plasmin, APC, kallikrein, urokinase, fXIIa); test: Serine protease selectivity screen (amidolytic assays with chromogenic substrates); format: biochemical
Description: Avathrin was screened for its selectivity against 13 serine proteases including procoagulant, anticoagulant, fibrinolytic and classical serine proteases (thrombin, trypsin, fIXa, fXIa, fXa, chymotrypsin, tPA, fVIIa, plasmin, APC, kallikrien, urokinase and fXIIa). […]
Thrombin amidolytic activity assays for all peptides were performed in 96-wells microtiter plates in 50 mM Tris buffer (pH 7.4) containing 100 mM NaCl and 1 mg/ml bovine serum albumin. […] The rates of formation of p-nitroaniline were followed by measuring the absorbance at 405 nm for 10 min with a Tecan InfinitePro M200 microplate reader from Tecan (Männedorf, Switzerland). […] To measure the inhibitory constants, different concentrations of S2238 were used and the residual velocities were determined using the Morrison's tight binding equation. Inhibition of thrombin fibrinogenolytic activity of peptides were tested by measuring absorbance at 650 nm using a Sunrise microplate reader from Tecan (Männedorf, Switzerland) as described previously [Koh C Y, et al., J Biol Chem 282: 29101-13 (2007)]. […] Effects of avathrin on the amidolytic activities of these serine proteases were determined using respective chromogenic substrates. […]

[2] = system: platelets (ADP-induced platelet aggregation); test: Preservation of platelet function in blood tubes (Multiplate, ADP-induced platelet aggregation); format: cell-based, human (healthy volunteers); details: ADP agonist
Description: Individual peptides are dissolved in phosphate buffered saline to prepare 10× peptide solutions (ie. concentrations of peptides are 10 times higher than the final concentrations at which they are to be tested). 0.3 ml of the 10× peptide solutions are placed in blood tubes without any additives. Blood was drawn from healthy volunteers using syringes and immediately transferred to a 50 ml conical centrifuge tube (Falcon tube) before pipetting 2.7 ml of the blood into blood tubes with peptide solutions. Final concentrations of peptides are as stated in Table 5 and 6.
Blood tubes with various peptides at different concentrations were left standing at room temperature until tested at designated times. At different time points, tubes were inverted several times and blood samples were taken out for platelet aggregation tests using a Multiplate® Platelet aggregometer with adenosine diphosphate (ADP) as agonist according to manufacturer's recommended protocols.

thrombin = biological target: T1, thrombin (Homo sapiens, UniProt P00734); test: Inhibition of thrombin fibrinogenolytic activity (fibrinogen clotting time); format: biochemical
T1 construct: residues in the termini of the light chain; and in the autolysis loop and C-terminus of the heavy chain; purchased Chemo-Sero-Therapeutic Research Institute (Kaketsuken, Japan), as a gift, not bought
Description: Thrombin amidolytic activity assays for all peptides were performed in 96-wells microtiter plates in 50 mM Tris buffer (pH 7.4) containing 100 mM NaCl and 1 mg/ml bovine serum albumin. Typically, 100 μl of peptide and 100 μl of thrombin were pre-incubated for different durations before 100 μl of S2238 was added to the reaction wells. The rates of formation of p-nitroaniline were followed by measuring the absorbance at 405 nm for 10 min with a Tecan InfinitePro M200 microplate reader from Tecan (Männedorf, Switzerland). Dose-response curves were fitted using the GraphPad Prizm software (San Diego, Calif., USA) to calculate IC50 values and Hill coefficients. To measure the inhibitory constants, different concentrations of S2238 were used and the residual velocities were determined using the Morrison's tight binding equation. Inhibition of thrombin fibrinogenolytic activity of peptides were tested by measuring absorbance at 650 nm using a Sunrise microplate reader from Tecan (Männedorf, Switzerland) as described previously [Koh C Y, et al., J Biol Chem 282: 29101-13 (2007)]. The selectivity of avathrin was examined against 13 serine proteases (FIG. 5). Effects of avathrin on the amidolytic activities of these serine proteases were determined using respective chromogenic substrates. Cleavage of avathrin by thrombin. Avathrin (150 μM) was incubated with thrombin (5 μM), in 50 mM Tris buffer (pH 7.4) containing 150 mM NaCl and 1 mg/ml BSA. After different incubation times, reactions were quenched with 1% TFA (pH 1.8) and loaded onto a Jupiter Proteo column (4 μm, 90 Å, 100×1.0 mm) attached to a Dionex nano-HPLC system from Thermo Fisher Scientific (Waltham, Mass., USA) and eluted using an acetonitrile gradient with 0.05% TFA and 99.95% MilliQ water as eluent A and 0.05% TFA, 19.95% MilliQ water and 80% ACN as eluent B. Masses of all peaks were measured to identify cleavage products, which were subsequently quantified by integrating the peaks and calculating the area under the curves. To measure the effect of different pre-incubation times on the thrombin inhibitory activity, amidolytic assays were performed for various incubation times (up to 36 h).

[3] = system: FeCl3-induced carotid artery thrombosis; test: Ferric chloride-induced carotid artery thrombosis model; format: in vivo, C57BL/6 male mice; details: mice, 10% FeCl3
Description: All animal experiments were carried out under protocol 041/12 approved by Institutional Animal Care and Use Committee, National University of Singapore. The ferric chloride induced carotid artery thrombosis model was performed as described previously [Eckly A, et al., J Thromb Haemost 9: 779-89 (2011)] with minor modifications. Typically, C57BL/6 male mice (9-11 weeks old, 24.5-27.5 g) were anesthetized with an intraperitoneal injection of ketamine (75 mg/kg) and medetomidine (1 mg/kg). 100 μL of different doses of avathrin were injected into the mice via tail vein. The right carotid artery was dissected using blunt dissection and a vascular injury was caused applying filter paper of 2 mm×2 mm saturated with FeCl3 on top of the carotid artery. After 3 min, the filter paper was removed and the vessel was washed with sterile normal saline. To determine the time to occlusion, a miniature Doppler flow probe (Transonic Systems Inc., Ithaca, N.Y., USA) was placed around the carotid artery and blood flow was recorded using a Transonic® flow meter from ADInstruments (Dunedin, New Zealand). The maximal time for monitoring the blood flow after injury was 30 min. Mice were euthanized by cervical dislocation immediately after the completion of the experiment and prior to recovery from anesthesia.

clot-bound thrombin = clot-bound thrombin (Homo sapiens, UniProt P00734); test: biochemical
Description: Clot-bound thrombin activity was tested using S2238. Briefly, fibrin clots were prepared by incubating 100 μL of 2 mg/mL fibrinogen (in 50 mM HEPES buffer, pH 7.5, 150 mM NaCl, 10 mg/mL CaCl2) with 100 μL 30 nM thrombin. After 2 h at 37° C., the clots were extensively washed with the same buffer. This washing was repeated after every three hours for a period of 24 hr. […] Chromogenic substrate, S2238 (final concentration 200 μM) was then added and the reaction mixture was incubated for 90 min at 37° C. Aliquots were taken, and substrate hydrolysis was estimated by end point reading at 405 nm, using a Tecan InfinitePro microplate reader. Experiments were performed in quadruplicate and percentage inhibition was plotted.

SMILES: CC[C@H](C)[C@H](NC(=O)[C@H](CCCCN)NC(=O)[C@@H]1CCCN1C(=O)[C@@H](NC(=O)[C@H](C)NC(=O)[C@@H](NC(=O)[C@H](CCC(N)=O)NC(=O)[C@H](Cc1c[nH]cn1)NC(=O)CNC(=O)CNC(=O)[C@@H](N)CO)[C@@H](C)O)C(C)C)C(=O)N[C@@H](CO)C(=O)N[C@@H](CCCCN)C(=O)N[C@@H](CCC(N)=O)C(=O)NCC(=O)N[C@@H](CC(C)C)C(=O)NCC(=O)NCC(=O)N[C@@H](CC(=O)O)C(=O)N[C@@H](Cc1ccccc1)C(=O)N[C@@H](CCC(=O)O)C(=O)N[C@@H](CCC(=O)O)C(=O)N[C@H](C(=O)N1CCC[C@H]1C(=O)N[C@@H](CO)C(=O)N[C@@H](CC(=O)O)C(=O)N[C@@H](CCC(=O)O)C(=O)N[C@H](C(=O)N[C@H](C(=O)N[C@@H](CCC(=O)O)C(=O)O)[C@@H](C)CC)[C@@H](C)CC)[C@@H](C)CC [Avathrin] (H-SGGHQTAVPKISKQGLGGDFEEIPSDEIIE-OH; N-terminus and C-terminus assumed)
- inhibition of other proteases ([1]; 100 μM avathrin): < 30%
- selectivity preference for thrombin ([1]; thrombin versus other serine proteases): at least four orders of magnitude
- Multiplate AUC (U) ([2]; 1.5 h, peptide 150 μM): 60.9 U
- Multiplate AUC (U) ([2]; 1.5 h, peptide 300 μM): 62.4 U
- Multiplate AUC (U) ([2]; 4 h, peptide 150 μM): 53.6 U
- Multiplate AUC (U) ([2]; 4 h, peptide 300 μM): 46.8 U
- Multiplate AUC (U) ([2]; 24 h, peptide 150 μM): 55.8 U
- Multiplate AUC (U) ([2]; 24 h, peptide 300 μM): 43.3 U
- Multiplate AUC (U) ([2]; 48 h, peptide 300 μM): 3.5 U
- effect on fibrinogen clotting time / thrombin fibrinogenolytic activity (thrombin): prolonged fibrinogen clotting time in a dose-dependent manner
- effect on fibrinogen clotting time / thrombin fibrinogenolytic activity (thrombin; listed as avathrin): prolonged fibrinogen clotting times in a dose dependent manner
- time to occlusion (TTO) ([3]; 3 mg/kg intravenously): 15.03 ± 3.23 min
- time to occlusion (TTO) ([3]; 10 mg/kg intravenously): 22.51 ± 4.19 min
- IC50 (clot-bound thrombin): 1740 ± 350 nM

SMILES: CC[C@H](C)[C@H](NC(=O)[C@H](C)NC(=O)[C@H](CC(=O)O)NC(=O)[C@H](CC(=O)O)NC(=O)[C@@H]1CCCN1C(=O)[C@@H](NC(=O)[C@H](CCC(=O)O)NC(=O)[C@H](CCC(=O)O)NC(=O)[C@H](Cc1ccccc1)NC(=O)[C@H](CC(=O)O)NC(=O)CNC(=O)[C@@H]1CCCN1C(=O)[C@@H]1CCCN1C(=O)[C@H](C)NC(=O)[C@@H](NC(=O)[C@H](CO)NC(=O)[C@H](Cc1ccc(O)cc1)NC(=O)[C@H](CCSC)NC(=O)[C@H](CCCCN)NC(=O)[C@@H]1CCCN1C(=O)[C@@H](NC(=O)[C@H](C)NC(=O)[C@H](CCCNC(=N)N)NC(=O)[C@@H](NC(=O)[C@H](C)NC(=O)[C@H](CCC(=O)O)NC(=O)[C@H](CC(=O)O)NC(=O)[C@@H](N)CO)C(C)C)[C@@H](C)CC)[C@@H](C)O)[C@@H](C)CC)C(=O)N[C@@H](CCC(=O)O)C(=O)N[C@@H](CCC(=O)O)C(=O)O [Ultravariegin] (H-SDEAVRAIPKMYSTAPPGDFEEIPDDAIEE-OH; N-terminus and C-terminus assumed)
- Multiplate AUC (U) ([2]; 1.5 h, peptide 150 μM): 55.7 U
- Multiplate AUC (U) ([2]; 1.5 h, peptide 300 μM): 66.3 U
- Multiplate AUC (U) ([2]; 4 h, peptide 150 μM): 52 U
- Multiplate AUC (U) ([2]; 4 h, peptide 300 μM): 46.1 U
- Multiplate AUC (U) ([2]; 24 h, peptide 150 μM): 43.1 U
- Multiplate AUC (U) ([2]; 24 h, peptide 300 μM): 39.5 U
- Multiplate AUC (U) ([2]; 48 h, peptide 150 μM): 7.4 U
- Multiplate AUC (U) ([2]; 48 h, peptide 300 μM): 25.4 U
- Multiplate AUC (U) ([2]; 72 h, peptide 150 μM): 9.6 U
- Multiplate AUC (U) ([2]; 72 h, peptide 300 μM): 15.4 U
- effect on fibrinogen clotting time / thrombin fibrinogenolytic activity (thrombin): prolonged fibrinogen clotting times in a dose dependent manner

From patent US10906946B2, “Thrombin inhibitors” (priority 2015, dated 2021)
